The text below walks through data of ChEMBL document CHEMBL4049437, “Benzoisoquinolinediones as Potent and Selective Inhibitors of BRPF2 and TAF1/TAF1L Bromodomains” (J Med Chem, 2017).

The target of series [1] is T1, Peregrin (Homo sapiens, UniProt P55201).
T1 sequence (P55201 whole entry): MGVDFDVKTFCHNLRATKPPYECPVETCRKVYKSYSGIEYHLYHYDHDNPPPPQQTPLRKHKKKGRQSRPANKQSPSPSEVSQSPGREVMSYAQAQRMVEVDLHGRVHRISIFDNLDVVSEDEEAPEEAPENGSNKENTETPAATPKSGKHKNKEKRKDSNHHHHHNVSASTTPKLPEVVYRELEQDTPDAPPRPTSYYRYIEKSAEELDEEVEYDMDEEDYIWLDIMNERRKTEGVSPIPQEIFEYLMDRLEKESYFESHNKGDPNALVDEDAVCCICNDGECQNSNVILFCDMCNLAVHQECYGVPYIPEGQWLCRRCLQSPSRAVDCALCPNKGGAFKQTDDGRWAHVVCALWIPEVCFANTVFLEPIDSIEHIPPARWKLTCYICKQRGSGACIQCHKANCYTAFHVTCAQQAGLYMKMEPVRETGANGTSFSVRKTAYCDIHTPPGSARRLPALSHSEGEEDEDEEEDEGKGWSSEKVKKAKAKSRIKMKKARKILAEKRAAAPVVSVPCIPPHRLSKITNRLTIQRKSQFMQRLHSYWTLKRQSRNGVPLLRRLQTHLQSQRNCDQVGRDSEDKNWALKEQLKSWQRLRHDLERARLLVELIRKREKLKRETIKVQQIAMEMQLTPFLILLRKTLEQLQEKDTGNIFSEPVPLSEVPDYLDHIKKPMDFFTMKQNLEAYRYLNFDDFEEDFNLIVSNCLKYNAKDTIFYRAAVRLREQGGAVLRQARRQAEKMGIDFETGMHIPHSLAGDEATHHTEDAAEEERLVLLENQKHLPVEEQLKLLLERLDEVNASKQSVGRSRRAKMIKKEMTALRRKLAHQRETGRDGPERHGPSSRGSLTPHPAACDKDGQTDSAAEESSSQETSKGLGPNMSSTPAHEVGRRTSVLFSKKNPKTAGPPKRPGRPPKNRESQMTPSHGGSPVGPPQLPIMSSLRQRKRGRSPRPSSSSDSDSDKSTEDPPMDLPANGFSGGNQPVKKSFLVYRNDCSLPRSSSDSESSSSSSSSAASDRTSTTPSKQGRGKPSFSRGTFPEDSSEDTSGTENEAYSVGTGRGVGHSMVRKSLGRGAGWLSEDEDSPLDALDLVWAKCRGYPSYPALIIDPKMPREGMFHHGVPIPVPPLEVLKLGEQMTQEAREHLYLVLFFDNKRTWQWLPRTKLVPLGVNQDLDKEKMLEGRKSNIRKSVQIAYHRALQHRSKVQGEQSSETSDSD
Briefly: Inhibition of His-tagged BRPF1 (626 to 740 residues) (unknown origin) preincubated for 15 mins followed by addition of C-terminal biotinylated synthetic K5,12 diacetylated histone H4 (1 to 20 residues) peptide as substrate measured after 1 hr by TR-FRET assay.

Series [2] has as its target T2, Bromodomain-containing protein 1 (Homo sapiens, UniProt O95696).
T2 sequence (O95696 whole entry): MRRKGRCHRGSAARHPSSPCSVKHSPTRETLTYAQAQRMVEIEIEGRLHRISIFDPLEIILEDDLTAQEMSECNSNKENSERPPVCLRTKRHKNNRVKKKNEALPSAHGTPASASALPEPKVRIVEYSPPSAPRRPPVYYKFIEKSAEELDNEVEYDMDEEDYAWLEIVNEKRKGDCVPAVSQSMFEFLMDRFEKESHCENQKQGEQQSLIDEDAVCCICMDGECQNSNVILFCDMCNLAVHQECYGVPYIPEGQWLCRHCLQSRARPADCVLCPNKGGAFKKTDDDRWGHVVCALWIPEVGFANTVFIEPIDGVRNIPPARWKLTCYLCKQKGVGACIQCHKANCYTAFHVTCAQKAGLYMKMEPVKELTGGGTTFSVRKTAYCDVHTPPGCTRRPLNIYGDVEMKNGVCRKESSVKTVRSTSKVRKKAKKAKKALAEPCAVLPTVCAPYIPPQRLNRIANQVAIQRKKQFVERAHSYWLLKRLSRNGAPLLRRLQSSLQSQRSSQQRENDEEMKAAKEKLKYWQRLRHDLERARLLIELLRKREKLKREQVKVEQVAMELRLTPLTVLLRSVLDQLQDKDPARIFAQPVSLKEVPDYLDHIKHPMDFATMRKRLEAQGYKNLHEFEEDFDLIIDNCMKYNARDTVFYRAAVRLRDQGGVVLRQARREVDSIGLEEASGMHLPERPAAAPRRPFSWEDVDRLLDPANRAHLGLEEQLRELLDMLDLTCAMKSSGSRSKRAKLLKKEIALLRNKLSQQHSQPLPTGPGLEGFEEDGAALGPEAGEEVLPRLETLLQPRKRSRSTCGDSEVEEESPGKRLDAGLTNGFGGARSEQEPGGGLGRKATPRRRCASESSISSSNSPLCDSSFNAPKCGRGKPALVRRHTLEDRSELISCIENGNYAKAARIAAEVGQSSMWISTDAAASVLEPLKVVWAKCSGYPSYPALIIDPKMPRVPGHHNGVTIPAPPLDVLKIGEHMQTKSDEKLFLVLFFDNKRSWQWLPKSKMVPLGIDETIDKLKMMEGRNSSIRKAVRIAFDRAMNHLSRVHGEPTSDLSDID
Briefly: Inhibition of human BRPF2 (563 to 688 residues) expressed in Escherichia coli BL21 (DE3)-R3-pRARE2 preincubated for 15 mins followed by addition of C-terminal biotinylated synthetic K5,12 diacetylated histone H4 (1 to 20 residues) peptide as substrate measured after 1 hr by TR-FRET assay.

For series [3], the target named is Transcription initiation factor TFIID subunit 1 (Homo sapiens, UniProt P21675). Briefly: Inhibition of human GST-tagged TAF1 BD2 (1519 to 1651 residues) expressed in Escherichia coli BL21 (DE3)-R3-pRARE2 preincubated for 15 mins followed by addition of C-terminal biotinylated synthetic K5,8,12,16 tetra-acetylated histone H4 (1 to 20 residues) peptide as substrate measured after 1 hr by TR-FRET assay.
Transcription initiation factor TFIID subunit 1, sequence (P21675 whole entry, the tested form may be a part): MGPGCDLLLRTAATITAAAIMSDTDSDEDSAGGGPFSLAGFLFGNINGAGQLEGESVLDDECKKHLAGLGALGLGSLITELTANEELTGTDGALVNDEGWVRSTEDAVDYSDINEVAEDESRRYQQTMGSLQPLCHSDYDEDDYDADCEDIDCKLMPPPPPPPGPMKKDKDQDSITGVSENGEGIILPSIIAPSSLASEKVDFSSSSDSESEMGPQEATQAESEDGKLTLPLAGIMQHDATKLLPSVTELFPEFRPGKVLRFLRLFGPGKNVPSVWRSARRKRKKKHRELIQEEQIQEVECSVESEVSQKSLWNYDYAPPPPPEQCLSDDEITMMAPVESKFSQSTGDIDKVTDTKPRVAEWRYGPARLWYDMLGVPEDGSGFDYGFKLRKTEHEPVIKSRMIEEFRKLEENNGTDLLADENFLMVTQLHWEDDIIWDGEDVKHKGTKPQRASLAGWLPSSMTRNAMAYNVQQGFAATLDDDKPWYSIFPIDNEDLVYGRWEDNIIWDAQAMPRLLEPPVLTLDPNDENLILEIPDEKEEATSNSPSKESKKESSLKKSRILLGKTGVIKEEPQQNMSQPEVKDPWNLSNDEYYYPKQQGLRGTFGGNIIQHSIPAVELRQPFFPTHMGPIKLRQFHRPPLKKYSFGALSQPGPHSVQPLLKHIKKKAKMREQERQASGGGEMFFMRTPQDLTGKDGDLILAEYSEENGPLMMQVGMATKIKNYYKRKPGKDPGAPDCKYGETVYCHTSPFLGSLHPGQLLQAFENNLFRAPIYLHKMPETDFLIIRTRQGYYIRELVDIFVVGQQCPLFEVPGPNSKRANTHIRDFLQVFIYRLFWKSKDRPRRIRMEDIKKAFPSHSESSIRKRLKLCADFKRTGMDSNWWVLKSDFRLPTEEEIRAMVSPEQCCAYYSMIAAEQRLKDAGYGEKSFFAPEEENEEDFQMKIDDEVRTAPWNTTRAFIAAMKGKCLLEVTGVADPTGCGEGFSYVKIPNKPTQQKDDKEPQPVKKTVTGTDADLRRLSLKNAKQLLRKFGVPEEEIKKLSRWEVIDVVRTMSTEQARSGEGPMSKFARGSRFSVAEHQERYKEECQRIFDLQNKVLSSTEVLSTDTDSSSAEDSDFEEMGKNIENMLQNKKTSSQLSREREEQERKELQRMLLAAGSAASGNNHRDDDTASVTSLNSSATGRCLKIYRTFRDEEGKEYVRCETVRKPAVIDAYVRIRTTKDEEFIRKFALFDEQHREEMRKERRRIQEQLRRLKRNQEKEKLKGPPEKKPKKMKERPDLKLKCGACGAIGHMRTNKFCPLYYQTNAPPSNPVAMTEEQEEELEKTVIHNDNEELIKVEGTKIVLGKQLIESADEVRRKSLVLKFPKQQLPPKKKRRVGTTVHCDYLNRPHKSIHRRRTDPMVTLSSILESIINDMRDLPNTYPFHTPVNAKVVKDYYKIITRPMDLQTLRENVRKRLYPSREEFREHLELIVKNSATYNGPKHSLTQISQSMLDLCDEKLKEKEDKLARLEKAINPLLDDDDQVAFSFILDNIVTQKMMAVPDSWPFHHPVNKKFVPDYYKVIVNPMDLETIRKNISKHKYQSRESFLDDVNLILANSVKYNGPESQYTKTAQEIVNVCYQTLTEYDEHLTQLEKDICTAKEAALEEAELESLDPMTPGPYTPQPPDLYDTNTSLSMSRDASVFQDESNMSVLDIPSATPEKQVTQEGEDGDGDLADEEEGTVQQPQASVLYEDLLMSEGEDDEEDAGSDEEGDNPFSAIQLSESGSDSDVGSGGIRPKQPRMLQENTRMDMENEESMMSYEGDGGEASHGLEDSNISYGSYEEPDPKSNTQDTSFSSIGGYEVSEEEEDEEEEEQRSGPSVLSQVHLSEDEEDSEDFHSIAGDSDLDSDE

Series [4] concerns the target T3, Bromodomain-containing protein 4 (Homo sapiens, UniProt O60885). Nature of the series: Inhibition of BRD4 BD2 (unknown origin) preincubated for 15 mins followed by addition of C-terminal biotinylated synthetic K5,8,12,16 tetra-acetylated histone H4 (1 to 20 residues) peptide as substrate measured after 1 hr by TR-FRET assay.
Series [5] deals with T3, Bromodomain-containing protein 4.
Series [6] has as its target T2, Bromodomain-containing protein 1.
Series [7] can be described thus: Aqueous solubility of the compound in DMSO at pH 6.5 after 24 hrs by HPLC-MS/MS analysis. To be noted: pH 6.5, 24 h. The format is physicochemical.

SMILES strings stand for the structures. ≈ marks a conversion by molar mass, not a printed value.

As for `CN1CCN(c2cc3c(cc2N2C(=O)c4cccc5cccc(c45)C2=O)n(C)c(=O)n3C)CC1`, the half-maximal inhibitory concentration (IC50) was 578 nM in series [1]; 366 nM in series [2]; 1500 nM in series [3]; more than 20000 nM in series [4]; more than 20000 nM in series [5].

On to `Cc1cc2c(cc1N1C(=O)c3cccc4cc(N)cc(c34)C1=O)n(C)c(=O)n2C`, for which the IC50 is 5510 nM in series [1]; 63 nM in series [2]; 33 nM in series [3]; more than 20000 nM in series [4]; more than 9950 nM in series [5].

On to `Cc1cc2c(cc1N1C(=O)c3cccc4c(N5CCOCC5)ccc(c34)C1=O)n(C)c(=O)n2C`, for which the IC50 in series [1] was 3310 nM; in series [2], 61 nM; in series [3], 90 nM; in series [4], more than 15000 nM; in series [6], 613 nM; in series [5], more than 16600 nM. In series [7], the solubility turned out to be 0.2 µg/mL (≈ 0.438 µM).

For the molecule `Cc1cc2c(cc1N1C(=O)c3cccc4c(N5CCN(CCN(C)C)CC5)ccc(c34)C1=O)n(C)c(=O)n2C`, the IC50 is 1270 nM in series [1]; 74 nM in series [2]; 25 nM in series [3]; more than 15000 nM in series [4]; 420 nM in series [6]; more than 13000 nM in series [5]. This molecule also came in with a solubility in series [7] of 159 µg/mL (≈ 302 µM).

As to `Cc1cc2c(cc1N1C(=O)c3cccc4c(N5CCC(O)CC5)ccc(c34)C1=O)n(C)c(=O)n2C`, the IC50 in series [1] was 4150 nM; in series [2] it was 66 nM; in series [3], 19 nM; in series [4], more than 15000 nM; in series [6], 2120 nM; in series [5], more than 12100 nM. This molecule also showed a solubility in series [7] of 0.8 µg/mL (≈ 1.7 µM).

In the case of `Cc1cc2c(cc1N1C(=O)c3cccc4c(N5CCCC5)ccc(c34)C1=O)n(C)c(=O)n2C`, the IC50 in series [1] is 4540 nM; in series [2] it was 126 nM; in series [4], more than 15000 nM; in series [6] it was more than 10000 nM; in series [5], 15500 nM. This molecule showed a solubility in series [7] of 0.1 µg/mL (≈ 0.227 µM).

As for `Cc1cc2c(cc1N1C(=O)c3cccc4c(N5CCN(C)CC5)ccc(c34)C1=O)n(C)c(=O)n2C`, the IC50 in series [1] was 1010 nM; in series [2], 93 nM; in series [3], 4 nM; in series [4], more than 15000 nM; in series [6], 1240 nM; in series [5], more than 14500 nM. In series [7], this molecule had a solubility of 287 µg/mL (≈ 611 µM).

With `Cn1c(=O)n(C)c2cc(N3C(=O)c4cccc5cccc(c45)C3=O)c(Br)cc21`, the IC50 is 855 nM in series [1]; 153 nM in series [2]; 87 nM in series [3]; more than 20000 nM in series [4]; more than 20000 nM in series [5].

Take `Cc1cc2c(cc1N1C(=O)c3cccc4cc(O)cc(c34)C1=O)n(C)c(=O)n2C`: the IC50 was 3690 nM in series [1]; 102 nM in series [2]; 13 nM in series [3]; more than 20000 nM in series [4]; more than 14200 nM in series [5].

For the molecule `Cc1cc2c(cc1N1C(=O)c3cccc4cc(Br)cc(c34)C1=O)n(C)c(=O)n2C`, the IC50 in series [1] is 1900 nM; in series [2], 124 nM; in series [3] it was 17 nM; in series [4], more than 20000 nM; in series [5], more than 17000 nM.

For `Cc1cc2c(cc1N1C(=O)c3cccc4cc([N+](=O)[O-])cc(c34)C1=O)n(C)c(=O)n2C`, the IC50 was 185 nM in series [1]; 82 nM in series [2]; 58 nM in series [3]; more than 20000 nM in series [4]; more than 20000 nM in series [5].

In the case of `Cc1cc2c(cc1N1C(=O)c3cccc4c(N5CCCCC5)ccc(c34)C1=O)n(C)c(=O)n2C`, the IC50 in series [1] was 13300 nM; in series [2], 95 nM; in series [3] it was 7 nM; in series [6], more than 10000 nM. Moreover, the solubility result in series [7] is listed as “Insoluble”.

`Cc1cc2c(cc1N1C(=O)c3cccc4c(N(C)CCN5CCCC5)ccc(c34)C1=O)n(C)c(=O)n2C`: the IC50 in series [1] is 1310 nM; in series [2], 84 nM; in series [3] it was 6 nM; in series [4], more than 15000 nM; in series [6] it was 941 nM; in series [5], more than 11500 nM. In series [7], this molecule returned a solubility of 334 µg/mL (≈ 671 µM).

`Cc1cc2c(cc1N1C(=O)c3cccc4cc(C#N)cc(c34)C1=O)n(C)c(=O)n2C`: the IC50 was 2230 nM in series [1]; 248 nM in series [2]; 22 nM in series [3]; more than 20000 nM in series [4]; more than 20000 nM in series [5].

For `Cc1cc2c(cc1N1C(=O)c3cccc4c(N5CCN(CC6CC6)CC5)ccc(c34)C1=O)n(C)c(=O)n2C`, the IC50 is 1220 nM in series [1]; 80 nM in series [2]; 14 nM in series [3]; 863 nM in series [6]; more than 9600 nM in series [5]. This molecule displayed a solubility in series [7] of 139 µg/mL (≈ 273 µM).

Turning to `Cc1cc2c(cc1N1C(=O)c3cccc4c(CCCCO)ccc(c34)C1=O)n(C)c(=O)n2C`, the IC50 was 2300 nM in series [1]; 70 nM in series [2]; 7 nM in series [3]; more than 15000 nM in series [4]; more than 11900 nM in series [5]. This molecule displayed a solubility in series [7] of 10 µg/mL (≈ 22.5 µM).

For `CN(C)c1cc2c(cc1N1C(=O)c3cccc4cccc(c34)C1=O)n(C)c(=O)n2C`, the half-maximal inhibitory concentration (IC50) in series [1] was 630 nM; in series [2], 100 nM; in series [3], 55 nM; in series [4], more than 20000 nM; in series [5], more than 20000 nM.

In the case of `Cc1cc2c(cc1N1C(=O)c3cccc4c(Br)ccc(c34)C1=O)n(C)c(=O)n2C`, the half-inhibitory concentration (IC50) in series [1] is 591 nM; in series [2] it was 51 nM; in series [3], 4 nM; in series [4], more than 20000 nM; in series [5] it was more than 9500 nM.
